Data taken from ChEMBL document CHEMBL2150884, “Inhibition of cell proliferation by quindoline derivative (SYUIQ-05) through its preferential interaction with c-myc promoter G-quadruplex” (J Med Chem, 2011).
Calls of active or inactive are those of the source. The rule behind the calls is not given here.

What was measured:
CA46 [1] = assay: Induction of senescence in human CA46 cells assessed as flat cells at 0.05 to 0.1 uM after 16 days by beta galactosidase assay; type: functional, cell-based
Ramos [2] = assay: Induction of senescence in human Ramos cells assessed as flat cells at 0.05 to 0.1 uM after 16 days by beta galactosidase assay; type: functional, cell-based
Nucleic Acid [3] = assay: Binding affinity to c-myc Pu27 DNA G-quadruplex in human Ramos cells assessed as down regulation of TERT transcription at 0.1 uM after 4 days by qRT-PCR; type: cell-based
Nucleic Acid [4] = assay: Binding affinity to G-quadruplex HTG21 assessed as change in melting temperature by FRET assay; type: nucleic-acid assay
K562 = assay: Cytotoxicity in human K562 cells by MTT assay; type: functional, cell-based
HeLa = assay: Cytotoxicity in human HeLa cells by MTT assay; type: functional, cell-based
[5] = Cytotoxicity in human GLC82 cells by MTT assay; type: functional, cell-based
Nucleic Acid [6] = assay: Binding affinity to G-quadruplex HTG21 by ITC titration assay; type: nucleic-acid assay
CA46 [7] = assay: Induction of senescence in human CA46 cells assessed as gaint cells at 0.05 to 0.1 uM after 16 days by beta galactosidase assay; type: functional, cell-based
Nucleic Acid [8] = assay: Binding affinity to c-myc Pu27 DNA G-quadruplex in human Ramos cells assessed as down regulation of c-myc transcription at 0.1 uM after 4 days by qRT-PCR; type: cell-based
Nucleic Acid [9] = assay: Inhibition of NM23-H2 interaction with wild type c-myc DNA G-quadruplex expressed in human HeLa cells assessed as dissociation of NM23-H2 from c-myc promoter at 0.05 to 0.1 uM by Ch-IP assay; type: cell-based
Nucleic Acid [10] = assay: Inhibition of POT1 interaction with wild type c-myc DNA G-quadruplex expressed in human HeLa cells assessed as dissociation of POT1 from c-myc promoter at 0.05 to 0.1 uM by Ch-IP assay; type: cell-based
Nucleic Acid [11] = assay: Binding affinity to c-myc Pu27 DNA G-quadruplex in human Ramos cells assessed as down regulation of TERT protein expression at 0.05 to 0.1 uM after 4 days by Western blot method; type: cell-based
[12] = Cytotoxicity in human SUNE1 cells by MTT assay; type: functional, cell-based
Nucleic Acid [13] = assay: Binding affinity to c-myc Pu27 DNA G-quadruplex in human CA46 cells assessed as down regulation of c-myc protein expression at 0.05 to 0.1 uM after 4 days by Western blot method; type: cell-based
MGC-803 = assay: Cytotoxicity in human MGC803 cells by MTT assay; type: functional, cell-based
Nucleic Acid [14] = assay: Binding affinity to G-quadruplex HTG21 by PCR stop assay; type: nucleic-acid assay
Nucleic Acid [15] = assay: Binding affinity to c-myc Pu27 DNA G-quadruplex by ITC titration assay; type: nucleic-acid assay
Nucleic Acid [16] = assay: Inhibition of NM23-H2 interaction with c-myc mutant promoter DNA expressed in human HeLa cells assessed as dissociation of NM23-H2 from c-myc promoter at 0.05 to 0.1 uM by Ch-IP assay; type: cell-based
Nucleic Acid [17] = assay: Binding affinity to c-myc Pu27 DNA G-quadruplex in human CA46 cells assessed as down regulation of TERT transcription at 0.1 uM after 4 days by qRT-PCR; type: cell-based
Nucleic Acid [18] = assay: Binding affinity to c-myc Pu27 DNA G-quadruplex in human Ramos cells assessed as down regulation of c-myc protein expression at 0.05 to 0.1 uM after 4 days by Western blot method; type: cell-based
Nucleic Acid [19] = assay: Binding affinity to c-myc Pu27 DNA G-quadruplex assessed as change in melting temperature by FRET assay; type: nucleic-acid assay
Nucleic Acid [20] = assay: Binding affinity to c-myc Pu27 DNA G-quadruplex by PCR stop assay; type: nucleic-acid assay
[21] = Cytotoxicity in human CNE2 cells by MTT assay; type: functional, cell-based; settings: CNE-2
[22] = biological target: Telomerase reverse transcriptase (Homo sapiens) (UniProt O14746); assay: […] in human Ramos cells at 0.05 uM for 16 days by TRF length assay; type: cell-based
Sequence of Telomerase reverse transcriptase (Homo sapiens) (O14746 whole entry): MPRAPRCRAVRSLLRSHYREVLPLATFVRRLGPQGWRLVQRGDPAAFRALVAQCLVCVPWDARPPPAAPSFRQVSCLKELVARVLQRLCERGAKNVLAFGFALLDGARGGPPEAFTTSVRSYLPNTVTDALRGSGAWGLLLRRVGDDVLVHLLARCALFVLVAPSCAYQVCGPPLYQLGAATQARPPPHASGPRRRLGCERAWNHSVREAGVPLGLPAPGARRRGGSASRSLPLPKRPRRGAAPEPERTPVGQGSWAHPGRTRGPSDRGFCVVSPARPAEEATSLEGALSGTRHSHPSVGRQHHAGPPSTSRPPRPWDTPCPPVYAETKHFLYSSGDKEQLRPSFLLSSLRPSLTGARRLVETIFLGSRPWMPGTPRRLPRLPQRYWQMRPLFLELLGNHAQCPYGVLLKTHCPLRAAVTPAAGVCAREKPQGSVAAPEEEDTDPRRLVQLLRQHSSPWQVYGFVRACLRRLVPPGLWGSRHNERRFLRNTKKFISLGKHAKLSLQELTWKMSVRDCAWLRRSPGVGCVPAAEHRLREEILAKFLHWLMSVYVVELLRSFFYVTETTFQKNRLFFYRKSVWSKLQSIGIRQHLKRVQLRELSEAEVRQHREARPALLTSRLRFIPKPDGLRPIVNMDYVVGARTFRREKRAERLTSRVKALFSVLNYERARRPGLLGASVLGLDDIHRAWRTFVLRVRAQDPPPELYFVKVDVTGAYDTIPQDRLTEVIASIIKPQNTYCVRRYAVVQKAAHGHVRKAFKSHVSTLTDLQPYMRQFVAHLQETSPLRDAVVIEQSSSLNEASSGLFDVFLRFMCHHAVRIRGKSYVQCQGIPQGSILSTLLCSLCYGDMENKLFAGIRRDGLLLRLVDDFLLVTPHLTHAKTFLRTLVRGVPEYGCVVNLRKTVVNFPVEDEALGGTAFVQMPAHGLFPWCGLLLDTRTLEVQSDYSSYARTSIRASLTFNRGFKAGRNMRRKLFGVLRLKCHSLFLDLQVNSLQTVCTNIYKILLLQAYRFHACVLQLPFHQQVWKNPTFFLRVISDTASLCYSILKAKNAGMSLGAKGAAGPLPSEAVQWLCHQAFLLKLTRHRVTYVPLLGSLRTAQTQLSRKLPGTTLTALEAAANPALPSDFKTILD

Ramos [23] = assay: Antiproliferative activity against human Ramos cells assessed as cell viability at 0.05 uM after 20 days; type: functional, cell-based
CA46 [24] = assay: Antiproliferative activity against cmyc NHE III1 element-deficient human CA46 cells assessed as cell viability after 20 days; type: functional, cell-based
[25] = biological target: Telomerase reverse transcriptase (Homo sapiens) (UniProt O14746); assay: […] in human Ramos cells at 0.1 uM for 16 days by TRF length assay; type: cell-based
HL-60 = assay: Cytotoxicity in human HL60 cells by MTT assay; type: functional, cell-based
Nucleic Acid [26] = assay: Binding affinity to c-myc Pu27 DNA G-quadruplex in human CA46 cells assessed as down regulation of c-myc transcription at 0.1 uM after 4 days by qRT-PCR; type: cell-based
Ramos [27] = assay: Antiproliferative activity against human Ramos cells assessed as cell viability after 20 days; type: functional, cell-based
Bel-7402 = assay: Cytotoxicity in human Bel7402 cells by MTT assay; type: functional, cell-based
Nucleic Acid [28] = assay: Inhibition of NM23-H2 interaction with c-myc DNA G-quadruplex in human HeLa cells assessed as inhibition of c-myc expression at 0.1 uM measured by quantitative RT-PCR analysis; type: cell-based
Ramos [29] = assay: Induction of senescence in human Ramos cells assessed as gaint cells at 0.05 to 0.1 uM after 16 days by beta galactosidase assay; type: functional, cell-based
[30] = biological target: Telomerase reverse transcriptase (Homo sapiens) (UniProt O14746); assay: […] in human Ramos cells at 0.05 to 0.1 uM for 16 days by TRF length assay; type: cell-based

CN(C)CCCNc1c2ccccc2nc2c1[nH]c1ccccc12
Activity (CA46 [1]): inactive
Activity (Ramos [2]): Active
Activity (Nucleic Acid [3]): Active
ΔTm (Nucleic Acid [4]): 10 °C
IC50 (K562): 240 nM
IC50 (HeLa): 240 nM
IC50 [5]: 240 nM
Ka (Nucleic Acid [6]): 1.79 10^4 M^-1
Activity (CA46 [7]): inactive
Activity (Nucleic Acid [8]): Active
inhibition (Nucleic Acid [9]): Active
inhibition (Nucleic Acid [10]): inactive
Activity (Nucleic Acid [11]): Active
IC50 [12]: 240 nM
Activity (Nucleic Acid [13]): Active
IC50 (MGC-803): 240 nM
IC50 (Nucleic Acid [14]): 2500 nM
Ka (Nucleic Acid [15]): 4.03 10^4 M^-1
inhibition (Nucleic Acid [16]): inactive
Activity (Nucleic Acid [17]): inactive
Activity (Nucleic Acid [18]): Active
ΔTm (Nucleic Acid [19]): 13 °C
IC50 (Nucleic Acid [20]): 1800 nM
IC50 [21]: 240 nM
inhibition [22]: Active
Activity (Ramos [23]): Active
inhibition (CA46 [24]): inactive
inhibition [25]: Active
IC50 (HL-60): 240 nM
Activity (Nucleic Acid [26]): inactive
Activity (Ramos [27]): Dose-dependent effect
IC50 (Bel-7402): 240 nM
inhibition (Nucleic Acid [28]): Active
Activity (Ramos [29]): Active
inhibition [30]: Active
